Test [1] deals with Panc-1 cells and YPK-3 cells. As to the kind of experiment: 51Cr-releasing test of CTLs induced by KM-PA-2 peptides (Example 8). In kind it is cell-based, human. The following applies: result in words; for Lysis of HLA-A2- tumor cell and normal cells by peptide-induced CTLs: PaCa-2, EBV-B cell line OKAB2, PHA-stimulated T cells; for Lysis of HLA-A2+ tumor cells by peptide-induced CTLs: Panc-1 cells and YPK-3 cells. An excerpt: The ability of the synthesized peptide to induce CTL from the peripheral blood mononuclear cells of the colon cancer patient, from whom OK-CTLp was obtained, was examined in the same way as that in Example 6. As a result, as shown in FIGS. 20A-20B, PBMC that was stimulated in vitro using any one of peptides P33 to P41 (SEQ ID NO:33 to SEQ ID NO:41) derived from KM-PA-2 and peptides P42 to P44 (SEQ ID NO:42 to SEQ ID NO:44) derived from KM-PA-4, produced IFN-γ through recognition of the T2 cells (left-hand figure of FIGS. 20A-20B,) which were pulsed with the peptide corresponding to that used for stimulation of the PBMC, and the Panc-1 cell (right-hand of FIGS. 20A-20B,) which is the HLA-A2^+ tumor cell. However, the PBMC reacted […] to the HLA-A2^− tumor cell. […] In addition, cytotoxicity of these CTLs induced by the peptides was directly confirmed by the ^51Cr-releasing test in the same way as that in Example 6. FIGS. 21A-21C show a representative example of the result. As shown in FIGS. 21A-21C, CTLs induced from PBMC of the cancer patient by P35, P39, or P40 lysed Panc-1 cells and YPK-3 cells, both of which are HLA-A2^+ tumor cells. However, the HLA-A2^− tumor cell PaCa-2, the EBV-B cell line OKAB2, and the T cells stimulated by PHA, was not lysed.

For test [2], the system named is human peripheral blood mononuclear cells (PBMC). As to the kind of experiment: CTL induction by peptide from PBMC of HLA-A2-positive cancer patients and healthy individuals, IFN-γ against peptide-pulsed T2 cells (Example 6). In kind it is cell-based. As to conditions: for INF-γ production: peptide-pulsed T2 cells; for Patients in whom peptide-specific HLA-A2-restricted CTL were induced from PBMC: sixteen HLA-A2-positive cancer patients. As to the method:
For six peptides (P21, P22, P24, P26, P30, and P32) with a purity of 95% or higher among peptides from P20 to P32 derived from gene 7 and CPSF among the tumor antigen peptide obtained in Example 4, the activity to induce CTL in vitro from human peripheral blood mononuclear cells (PBMC) was examined using IFN-γ production as an indicator. PBMC used was prepared from each peripheral blood of sixteen HLA-A2-positive cancer patients (4 patients with pancreatic cancer, seven patients with stomach cancer, and 5 patients with colon cancer) and six healthy individuals. Specifically, 1×10^5 PBMC was added to each well of 96-well U-bottom type microculture plate (Nunc Corp.) and incubated together with 10 μM of each of the above-described peptides in 200 μl culture medium. The culture medium consisted of 45% RPMI-1640, 45% AIM-V (Invitrogen Corp.,) 10% fetal calf serum (FCS), 100U/ml of human interleukin-2, and […] MEM nonessential amino acid solution (Invitrogen Corp.). At day 4 and day 7 after the start of culturing, half of the culture medium was removed and replaced with the above-described composition containing each corresponding peptide. At day 10 after the start of culturing, the cells were collected and washed, followed by reacting with T2 cells, which were pulsed with each corresponding peptide, to measure the amount of IFN-γ produced.

Test [3] deals with Panc-1 pancreatic adenocarcinoma cell (HLA-A2). Put plainly: 6-h 51Cr-releasing test of peptide-stimulated PBMC against Panc-1 (Example 6). It counts as cell-based, human. As to the method:
Meanwhile, the above-described cells cultured for 10 days after stimulation by the peptide were further cultured for 10 days. The cytotoxicity of the obtained cells against the Panc-1 pancreatic adenocarcinoma cell (HLA-A2) was measured by the standard 6-h ^51Cr-releasing test in an E/T ratio of 10:1. The results obtained are presented as % specific lysis (table 7). Together with this step, cytotoxicity against SSTW-9 tumor cell as the HLA-A2^− tumor cell was measured to use as a background that was subtracted from the above-described result.

Another test relates to OK-CTLp or OK-CTL clone. Put plainly: Recognition of peptide-pulsed T2 cells by OK-CTLp or OK-CTL clone (IFN-γ ELISA). It counts as cell-based, human.
Setting [4] is: PBMC of colon cancer patient 12.
The mark [5] stands for this setting: PBMC of colon cancer patient 13.
The mark [6] stands for this setting: PBMC of colon cancer patient 14.
The mark [7] stands for this setting: PBMC of colon cancer patient 15.
Where [8] appears, read: PBMC of colon cancer patient 16.
Setting [9] is: PBMC of pancreatic cancer patient 1.
The mark [10] stands for this setting: PBMC of pancreatic cancer patient 2.
The mark [11] stands for this setting: PBMC of pancreatic cancer patient 3.
The mark [12] stands for this setting: PBMC of pancreatic cancer patient 4.
Setting [13] is: PBMC of stomach cancer patient 5.
Setting [14] is: PBMC of stomach cancer patient 6.
Where [15] appears, read: PBMC of stomach cancer patient 7.
Setting [16] is: PBMC of stomach cancer patient 8.
Where [17] appears, read: PBMC of stomach cancer patient 9.
Where [18] appears, read: PBMC of stomach cancer patient 10.
The mark [19] stands for this setting: PBMC of stomach cancer patient 11.
The mark [20] stands for this setting: PBMC of pancreatic cancer patient 4, Panc-1, E/T 10:1.
[21] abbreviates: concentration of peptide 0.1 μM.
Where [22] appears, read: PBMC of pancreatic cancer patient 2, Panc-1, E/T 10:1, SSTW-9 background subtracted.

“LLQNPLLVPV (Designed peptide having an ability to activate HLA-A2 restricted Cytotoxic T lymphocytes) [Peptide P40, KM-PA-2 586-595]”: in test [1], the “Lysis of HLA-A2- tumor cell and normal cells by peptide-induced CTLs” value was “not lysed”; the “Lysis of HLA-A2+ tumor cells by peptide-induced CTLs” value (from here on “Lysis of HLA-A2+ tumor cells”) is “lysed”.

With KVHPVIWSL [Peptide P21], the INF-γ production is 0 pg/mL in test [2] (setting [4]); 0 pg/mL in test [2] (setting [5]); 66 pg/mL in test [2] (setting [6]); 0 pg/mL in test [2] (setting [7]); 140 pg/mL in test [2] (setting [8]); 0 pg/mL in test [2] (PBMC of healthy individual HD1). Further, the INF-γ production in test [2] (PBMC of healthy individual HD2) is 0 pg/mL; in test [2] (PBMC of healthy individual HD3) it was 58 pg/mL; in test [2] (PBMC of healthy individual HD4) it was 5 pg/mL; in test [2] (PBMC of healthy individual HD5), 224 pg/mL; in test [2] (PBMC of healthy individual HD6) it was 97 pg/mL; in test [2] (setting [9]), 0 pg/mL. Further, the INF-γ production in test [2] (setting [10]) amounted to 7 pg/mL; in test [2] (setting [11]), 0 pg/mL; in test [2] (setting [12]) it was 543 pg/mL; in test [2] (setting [13]), 0 pg/mL; in test [2] (setting [14]), 0 pg/mL; in test [2] (setting [15]) it was 0 pg/mL. For the same sequence, the INF-γ production in test [2] (setting [16]) is 5 pg/mL; in test [2] (setting [17]) it was greater than 1500 pg/mL; in test [2] (setting [18]), 0 pg/mL; in test [2] (setting [19]), 136 pg/mL. Further, the “Healthy individuals in whom CTL were induced from PBMC” value in test [2] (six healthy individuals) worked out at 50%. Further, the “Patients in whom peptide-specific HLA-A2-restricted CTL were induced from PBMC” value (“Patients” for short) in test [2] was found to be 31%. In addition, the “% specific lysis” value in test [3] (PBMC of colon cancer patient 14, Panc-1, E/T 10:1) is recorded as 11%; in test [3] (setting [20]) it was 12%; in test [3] (PBMC of stomach cancer patient 9, Panc-1, E/T 10:1), 27%; in test [3] (PBMC of stomach cancer patient 11, Panc-1, E/T 10:1) it was 18%. The IFN-γ production was 428 pg/mL in the test on OK-CTLp or OK-CTL clone (setting [21]), 501 pg/mL in the test with OK-CTLp or OK-CTL clone (concentration of peptide 1 μM), 81 pg/mL in the test with OK-CTLp or OK-CTL clone (concentration of peptide 10 μM) and 195 pg/mL in the test on OK-CTLp or OK-CTL clone (concentration of peptide 50 μM).

With “WAQEDPNAV (Designed peptide having an ability to activate HLA-A2 restricted Cytotoxic T lymphocytes) [Peptide P35, KM-PA-2 172-180]”, in test [1], the “Lysis of HLA-A2- tumor cell and normal cells by peptide-induced CTLs” value is “not lysed”; the “Lysis of HLA-A2+ tumor cells” value is “lysed”.

Regarding “DLLQNPLLV (Designed peptide having an ability to activate HLA-A2 restricted Cytotoxic T lymphocytes) [Peptide P39, KM-PA-2 585-593]”, in test [1], the “Lysis of HLA-A2- tumor cell and normal cells by peptide-induced CTLs” value is “not lysed”; the “Lysis of HLA-A2+ tumor cells” value is “lysed”.

As for QLGQGNLKV [Peptide P23], the INF-γ production in test [2] (setting [4]) was found to be 71 pg/mL; in test [2] (setting [5]) it was 138 pg/mL; in test [2] (setting [6]), 48 pg/mL; in test [2] (setting [7]) it was 14 pg/mL; in test [2] (setting [8]), 0 pg/mL; in test [2] (PBMC of healthy individual HD1), 0 pg/mL. The INF-γ production in test [2] (PBMC of healthy individual HD2) stood at 13 pg/mL; in test [2] (PBMC of healthy individual HD3), 8 pg/mL; in test [2] (PBMC of healthy individual HD4), 6 pg/mL; in test [2] (PBMC of healthy individual HD5) it was 83 pg/mL; in test [2] (PBMC of healthy individual HD6), 45 pg/mL; in test [2] (setting [9]), 0 pg/mL. For the same sequence, the INF-γ production in test [2] (setting [10]) was 41 pg/mL; in test [2] (setting [11]), 0 pg/mL; in test [2] (setting [12]) it was 72 pg/mL; in test [2] (setting [13]) it was 0 pg/mL; in test [2] (setting [14]), 0 pg/mL; in test [2] (setting [15]), 46 pg/mL. The INF-γ production in test [2] (setting [16]), in test [2] (setting [17]), in test [2] (setting [18]) and in test [2] (setting [19]) was 0 pg/mL in each case. Also, the “Patients” value in test [2] amounted to 25%. Also, the “% specific lysis” value is on record as 18% in test [3] (PBMC of colon cancer patient 12, Panc-1, E/T 10:1); 10% in test [3] (PBMC of colon cancer patient 13, Panc-1, E/T 10:1); 53% in test [3] (setting [22]); 10% in test [3] (setting [20]); 10% in test [3] (PBMC of stomach cancer patient 7, Panc-1, E/T 10:1). Also, the IFN-γ production in the test with OK-CTLp or OK-CTL clone (setting [21]) amounted to 6360 pg/mL; in the test with OK-CTLp or OK-CTL clone (concentration of peptide 1 μM) it was 0 pg/mL; in the test on OK-CTLp or OK-CTL clone (concentration of peptide 10 μM) it was 345 pg/mL; with OK-CTLp or OK-CTL clone (concentration of peptide 50 μM) it was 160 pg/mL.

As for “LLRRADFHV (Designed peptide having an ability to activate HLA-A2 restricted Cytotoxic T lymphocytes) [Peptide P26, Gene 7 1296-1304]”, the INF-γ production amounted to 0 pg/mL in test [2] (setting [4]); 0 pg/mL in test [2] (setting [5]); 0 pg/mL in test [2] (setting [6]); 40 pg/mL in test [2] (setting [7]); 45 pg/mL in test [2] (setting [8]); 0 pg/mL in test [2] (PBMC of healthy individual HD1). The INF-γ production in test [2] (PBMC of healthy individual HD2) came out at 0 pg/mL; in test [2] (PBMC of healthy individual HD3), 0 pg/mL; in test [2] (PBMC of healthy individual HD4) it was 0 pg/mL; in test [2] (PBMC of healthy individual HD5), 13 pg/mL; in test [2] (PBMC of healthy individual HD6) it was 0 pg/mL; in test [2] (setting [9]), 0 pg/mL. The INF-γ production in test [2] (setting [10]) is 35 pg/mL; in test [2] (setting [11]), 0 pg/mL; in test [2] (setting [12]) it was 77 pg/mL; in test [2] (setting [13]), 53 pg/mL; in test [2] (setting [14]) it was 0 pg/mL; in test [2] (setting [15]) it was 0 pg/mL. In addition, the INF-γ production in test [2] (setting [16]) is 11 pg/mL; in test [2] (setting [17]) it was 8 pg/mL; in test [2] (setting [18]), 0 pg/mL; in test [2] (setting [19]), 0 pg/mL. The “Patients” value in test [2] was found to be 31%. For the same sequence, the “% specific lysis” value in test [3] (PBMC of colon cancer patient 15, Panc-1, E/T 10:1) stood at 12%; in test [3] (setting [22]) it was 36%; in test [3] (setting [20]), 20%; in test [3] (PBMC of stomach cancer patient 5, Panc-1, E/T 10:1), 11%. Also, the IFN-γ production in the test on OK-CTLp or OK-CTL clone (setting [21]) amounted to 141 pg/mL; in the test with OK-CTLp or OK-CTL clone (concentration of peptide 1 μM), 418 pg/mL; in the test on OK-CTLp or OK-CTL clone (concentration of peptide 10 μM) it was 1239 pg/mL; with OK-CTLp or OK-CTL clone (concentration of peptide 50 μM), 0 pg/mL.

The values above are taken from US7524930B2, “Tumor antigen” (Green Peptide Co., Ltd, priority 2003, dated 2009).
